Measured values from ChEMBL document CHEMBL4004849, “Tetrazolylmethyl quinolines: Design, docking studies, synthesis, anticancer and antifungal analyses” (2017).
≈ marks a conversion by molar mass, not a printed value.

What was measured:
Type in all cases: functional
MDA-MB-435 = assay: Growth inhibition of human MDA-MB-435 cells at 10^-5 M incubated for 48 hrs by sulforhodamine B assay relative to control; settings: MDA-MB-435, 48 h, read-out: GI
HCC 2998 = assay: Growth inhibition of human HCC2998 cells at 10^-5 M incubated for 48 hrs by sulforhodamine B assay relative to control; settings: HCC 2998, 48 h, read-out: GI
MDA-MB-231 = assay: Growth inhibition of human MDA-MB-231/ATCC cells at 10^-5 M incubated for 48 hrs by sulforhodamine B assay relative to control; settings: MDA-MB-231, 48 h, read-out: GI
Candida albicans = assay: Antifungal activity against Candida albicans at 100 ug/ml by disc diffusion method; settings: read-out: IZ
HCT-116 = assay: Growth inhibition of human HCT116 cells at 10^-5 M incubated for 48 hrs by sulforhodamine B assay relative to control; settings: HCT-116, 48 h, read-out: GI
Aspergillus fumigatus [1] = assay: Antifungal activity against Aspergillus fumigatus at 100 ug/ml by disc diffusion method; settings: read-out: IZ
MOLT-4 = assay: Growth inhibition of human MOLT4 cells at 10^-5 M incubated for 48 hrs by sulforhodamine B assay relative to control; settings: MOLT-4, 48 h, read-out: GI
SK-MEL-5 = assay: Growth inhibition of human SK-MEL-5 cells at 10^-5 M incubated for 48 hrs by sulforhodamine B assay relative to control; settings: SK-MEL-5, 48 h, read-out: GI
KM12 = assay: Growth inhibition of human KM12 cells at 10^-5 M incubated for 48 hrs by sulforhodamine B assay relative to control; settings: KM12, 48 h, read-out: GI
Hs-578T = assay: Growth inhibition of human Hs 578T cells at 10^-5 M incubated for 48 hrs by sulforhodamine B assay relative to control; settings: read-out: GI
SF-268 = assay: Growth inhibition of human SF268 cells at 10^-5 M incubated for 48 hrs by sulforhodamine B assay relative to control; settings: SF-268, 48 h, read-out: GI
A549 = assay: Growth inhibition of human A549/ATCC cells at 10^-5 M incubated for 48 hrs by sulforhodamine B assay relative to control; settings: A549, 48 h, read-out: GI
SR = assay: Growth inhibition of human SR cells at 10^-5 M incubated for 48 hrs by sulforhodamine B assay relative to control; settings: read-out: GI
M14 = assay: Growth inhibition of human M14 cells at 10^-5 M incubated for 48 hrs by sulforhodamine B assay relative to control; settings: M14, 48 h, read-out: GI
SK-OV-3 = assay: Growth inhibition of human SKOV3 cells at 10^-5 M incubated for 48 hrs by sulforhodamine B assay relative to control; settings: SK-OV-3, 48 h, read-out: GI
COLO 205 = assay: Growth inhibition of human COLO205 cells at 10^-5 M incubated for 48 hrs by sulforhodamine B assay relative to control; settings: COLO 205, 48 h, read-out: GI
NCI-H522 = assay: Growth inhibition of human NCI-H522 cells at 10^-5 M incubated for 48 hrs by sulforhodamine B assay relative to control; settings: NCI-H522, 48 h, read-out: GI
Aspergillus fumigatus [2] = assay: Antifungal activity against Aspergillus fumigatus after 24 hrs by serial dilution method
Malme-3M = assay: Growth inhibition of human MALME-3M cells at 10^-5 M incubated for 48 hrs by sulforhodamine B assay relative to control; settings: read-out: GI
SK-MEL-28 = assay: Growth inhibition of human SK-MEL-28 cells at 10^-5 M incubated for 48 hrs by sulforhodamine B assay relative to control; settings: SK-MEL-28, 48 h, read-out: GI
NCI-H226 = assay: Growth inhibition of human NCI-H226 cells at 10^-5 M incubated for 48 hrs by sulforhodamine B assay relative to control; settings: NCI-H226, 48 h, read-out: GI
NCI-H460 = assay: Growth inhibition of human NCI-H460 cells at 10^-5 M incubated for 48 hrs by sulforhodamine B assay relative to control; settings: NCI-H460, 48 h, read-out: GI
UACC-62 = assay: Growth inhibition of human UACC62 cells at 10^-5 M incubated for 48 hrs by sulforhodamine B assay relative to control; settings: UACC-62, 48 h, read-out: GI
K562 = assay: Growth inhibition of human K562 cells at 10^-5 M incubated for 48 hrs by sulforhodamine B assay relative to control; settings: K562, 48 h, read-out: GI
SNB-19 = assay: Growth inhibition of human SNB19 cells at 10^-5 M incubated for 48 hrs by sulforhodamine B assay relative to control; settings: SNB-19, 48 h, read-out: GI
ACHN = assay: Growth inhibition of human ACHN cells at 10^-5 M incubated for 48 hrs by sulforhodamine B assay relative to control; settings: read-out: GI
BT-549 = assay: Growth inhibition of human BT549 cells at 10^-5 M incubated for 48 hrs by sulforhodamine B assay relative to control; settings: BT-549, 48 h, read-out: GI
U-251 = assay: Growth inhibition of human U251 cells at 10^-5 M incubated for 48 hrs by sulforhodamine B assay relative to control; settings: U-251, 48 h, read-out: GI
IGROV-1 = assay: Growth inhibition of human IGROV1 cells at 10^-5 M incubated for 48 hrs by sulforhodamine B assay relative to control; settings: IGROV-1, 48 h, read-out: GI
MCF7 = assay: Growth inhibition of human MCF7 cells at 10^-5 M incubated for 48 hrs by sulforhodamine B assay relative to control; settings: MCF7, 48 h, read-out: GI
HT-29 = assay: Growth inhibition of human HT-29 cells at 10^-5 M incubated for 48 hrs by sulforhodamine B assay relative to control; settings: HT-29, 48 h, read-out: GI
SF-295 = assay: Growth inhibition of human SF295 cells at 10^-5 M incubated for 48 hrs by sulforhodamine B assay relative to control; settings: SF-295, 48 h, read-out: GI
SF-539 = assay: Growth inhibition of human SF539 cells at 10^-5 M incubated for 48 hrs by sulforhodamine B assay relative to control; settings: SF-539, 48 h, read-out: GI
UACC-257 = assay: Growth inhibition of human UACC257 cells at 10^-5 M incubated for 48 hrs by sulforhodamine B assay relative to control; settings: UACC-257, 48 h, read-out: GI
OVCAR-4 = assay: Growth inhibition of human OVCAR4 cells at 10^-5 M incubated for 48 hrs by sulforhodamine B assay relative to control; settings: OVCAR-4, 48 h, read-out: GI
OVCAR-5 = assay: Growth inhibition of human OVCAR5 cells at 10^-5 M incubated for 48 hrs by sulforhodamine B assay relative to control; settings: OVCAR-5, 48 h, read-out: GI
MDA-MB-468 = assay: Growth inhibition of human MDA-MB-468 cells at 10^-5 M incubated for 48 hrs by sulforhodamine B assay relative to control; settings: MDA-MB-468, 48 h, read-out: GI
UO-31 = assay: Growth inhibition of human UO31 cells at 10^-5 M incubated for 48 hrs by sulforhodamine B assay relative to control; settings: UO-31, 48 h, read-out: GI
OVCAR-3 = assay: Growth inhibition of human OVCAR3 cells at 10^-5 M incubated for 48 hrs by sulforhodamine B assay relative to control; settings: OVCAR-3, 48 h, read-out: GI
NCI-H23 = assay: Growth inhibition of human NCI-H23 cells at 10^-5 M incubated for 48 hrs by sulforhodamine B assay relative to control; settings: NCI-H23, 48 h, read-out: GI
RXF 393 = assay: Growth inhibition of human RXF393 cells at 10^-5 M incubated for 48 hrs by sulforhodamine B assay relative to control; settings: RXF 393, 48 h, read-out: GI
OVCAR-8 = assay: Growth inhibition of human OVCAR8 cells at 10^-5 M incubated for 48 hrs by sulforhodamine B assay relative to control; settings: OVCAR-8, 48 h, read-out: GI
CAKI-1 = assay: Growth inhibition of human Caki1 cells at 10^-5 M incubated for 48 hrs by sulforhodamine B assay relative to control; settings: CAKI-1, 48 h, read-out: GI
SW-620 = assay: Growth inhibition of human SW620 cells at 10^-5 M incubated for 48 hrs by sulforhodamine B assay relative to control; settings: SW-620, 48 h, read-out: GI

Compound: COc1ccc2nc(Cl)c(Cn3nnc(Cc4ccccc4)n3)cc2c1
- inhibition of growth at 10 µM (MDA-MB-435): 70.7%
- inhibition of growth at 10 µM (HCC 2998): 41%
- inhibition of growth at 10 µM (MDA-MB-231): 49.3%
- zone of inhibition at 100 µg/mL (Candida albicans): 16 mm
- inhibition of growth at 10 µM (HCT-116): 70.8%
- zone of inhibition at 100 µg/mL (Aspergillus fumigatus [1]): 20 mm
- inhibition of growth at 10 µM (MOLT-4): 89.7%
- inhibition of growth at 10 µM (SK-MEL-5): 147%
- inhibition of growth at 10 µM (KM12): 63.5%
- inhibition of growth at 10 µM (Hs-578T): 31.1%
- inhibition of growth at 10 µM (SF-268): 48.5%
- inhibition of growth at 10 µM (A549): 68.5%
- inhibition of growth at 10 µM (SR): 77.1%
- inhibition of growth at 10 µM (M14): 69.7%
- inhibition of growth at 10 µM (SK-OV-3): 50.6%
- inhibition of growth at 10 µM (COLO 205): 75.1%
- inhibition of growth at 10 µM (NCI-H522): 62%
- MIC (Aspergillus fumigatus [2]): 25 µg/mL (≈ 68.3 µM)
- inhibition of growth at 10 µM (Malme-3M): 65.6%
- inhibition of growth at 10 µM (SK-MEL-28): 52.5%
- inhibition of growth at 10 µM (NCI-H226): 61%
- inhibition of growth at 10 µM (NCI-H460): 60%
- inhibition of growth at 10 µM (UACC-62): 64.9%
- inhibition of growth at 10 µM (K562): 67.1%
- inhibition of growth at 10 µM (SNB-19): 42%
- inhibition of growth at 10 µM (ACHN): 58.5%
- inhibition of growth at 10 µM (BT-549): 79.7%
- inhibition of growth at 10 µM (U-251): 46.8%
- inhibition of growth at 10 µM (IGROV-1): 56.8%
- inhibition of growth at 10 µM (MCF7): 72.1%
- inhibition of growth at 10 µM (HT-29): 72.6%
- inhibition of growth at 10 µM (SF-295): 62.6%
- inhibition of growth at 10 µM (SF-539): 32.5%
- inhibition of growth at 10 µM (UACC-257): 73.5%
- inhibition of growth at 10 µM (OVCAR-4): 80.3%
- inhibition of growth at 10 µM (OVCAR-5): 17.2%
- inhibition of growth at 10 µM (MDA-MB-468): 70.1%
- inhibition of growth at 10 µM (UO-31): 85.3%
- inhibition of growth at 10 µM (OVCAR-3): 50.1%
- inhibition of growth at 10 µM (NCI-H23): 67.5%
- inhibition of growth at 10 µM (RXF 393): 39.8%
- inhibition of growth at 10 µM (OVCAR-8): 59.5%
- inhibition of growth at 10 µM (CAKI-1): 56.1%
- inhibition of growth at 10 µM (SW-620): 33.6%
